Here are results for one compound from PMC5391474, “Investigation of the Role of Protein Kinase D in Human Rhinovirus Replication” (Journal of Virology, 2017).

What all share (experiment): biochemical
Common to all, as to set-up: in vitro kinase selectivity panel, protein and lipid kinases, single concentration, ATP at Km
Common to all, as to conditions: ATP at Km

In one test the target is T1, cKit(V560G)(h) (Homo sapiens, UniProt P10721, V560G).
T1 construct: gene KIT
The method in brief: (§1)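 Single-point screen against a protein and lipid kinase panel: inhibitor at 1 μM. ATP concentration for every kinase equivalent to its Km.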

For the next test, the target named is T2, MAPKAP-K2(h) (Homo sapiens, UniProt P49137).
T2 construct: gene MAPKAPK2
Summed up: as §1

The target in another test is SPHK1 (Homo sapiens, UniProt Q9NYA1). Summed up:
as §1

In the next test the target is Flt1(h) (Homo sapiens, UniProt P17948). Summed up:
as §1

The target of the next test is T3, TrkB(h) (Homo sapiens, UniProt Q16620).
T3 construct: gene NTRK2
Summed up:
as §1

The target of another test is T4, cKit(D816H)(h) (Homo sapiens, UniProt P10721, D816H).
T4 construct: gene KIT
Summed up: as §1

The target of a further test is Flt4(h) (Homo sapiens, UniProt P35916). The method in brief: as §1
Another test deals with T5, GSK3β(h) (Homo sapiens, UniProt P49841).
T5 construct: gene GSK3B
The method in brief:
as §1

In a further test the target is T6, CaMKI(h) (Homo sapiens, UniProt Q14012).
T6 construct: gene CAMK1
Summed up: as §1

In the next test the target is T7, Ros(h) (Homo sapiens, UniProt P08922).
T7 construct: gene ROS1
The method in brief: as §1

In another test the target is T8, PRK2(h) (Homo sapiens, UniProt Q16513).
T8 construct: gene PKN2
The method in brief:
as §1

The next test concerns the target Bmx(h) (Homo sapiens, UniProt P51813). Summed up:
as §1

In another test the target is T9, Pim-1(h) (Homo sapiens, UniProt P11309).
T9 construct: gene PIM1
The method in brief:
as §1

For another test, the target named is Fer(h) (Homo sapiens, UniProt P16591). The method in brief:
as §1

The target of the next test is T10, PKCζ(h) (Homo sapiens, UniProt Q05513).
T10 construct: gene PRKCZ
The method in brief: as §1

For a further test, the target named is T11, Mer(h) (Homo sapiens, UniProt Q12866).
T11 construct: gene MERTK
Summed up: as §1

A further test deals with T12, TrkA(h) (Homo sapiens, UniProt P04629).
T12 construct: gene NTRK1
The method in brief: as §1

Structures are written as SMILES.

T9 sequence (P11309 whole entry): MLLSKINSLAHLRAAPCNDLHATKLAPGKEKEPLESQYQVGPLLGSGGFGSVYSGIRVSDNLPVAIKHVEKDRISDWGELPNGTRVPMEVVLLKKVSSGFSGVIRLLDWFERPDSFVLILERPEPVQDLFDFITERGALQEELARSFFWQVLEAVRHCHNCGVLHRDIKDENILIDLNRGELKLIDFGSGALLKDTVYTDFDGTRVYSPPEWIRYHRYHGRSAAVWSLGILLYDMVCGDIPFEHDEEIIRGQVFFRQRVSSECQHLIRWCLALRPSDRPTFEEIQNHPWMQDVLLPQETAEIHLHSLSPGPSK
Sequence of Bmx(h) (P51813 whole entry): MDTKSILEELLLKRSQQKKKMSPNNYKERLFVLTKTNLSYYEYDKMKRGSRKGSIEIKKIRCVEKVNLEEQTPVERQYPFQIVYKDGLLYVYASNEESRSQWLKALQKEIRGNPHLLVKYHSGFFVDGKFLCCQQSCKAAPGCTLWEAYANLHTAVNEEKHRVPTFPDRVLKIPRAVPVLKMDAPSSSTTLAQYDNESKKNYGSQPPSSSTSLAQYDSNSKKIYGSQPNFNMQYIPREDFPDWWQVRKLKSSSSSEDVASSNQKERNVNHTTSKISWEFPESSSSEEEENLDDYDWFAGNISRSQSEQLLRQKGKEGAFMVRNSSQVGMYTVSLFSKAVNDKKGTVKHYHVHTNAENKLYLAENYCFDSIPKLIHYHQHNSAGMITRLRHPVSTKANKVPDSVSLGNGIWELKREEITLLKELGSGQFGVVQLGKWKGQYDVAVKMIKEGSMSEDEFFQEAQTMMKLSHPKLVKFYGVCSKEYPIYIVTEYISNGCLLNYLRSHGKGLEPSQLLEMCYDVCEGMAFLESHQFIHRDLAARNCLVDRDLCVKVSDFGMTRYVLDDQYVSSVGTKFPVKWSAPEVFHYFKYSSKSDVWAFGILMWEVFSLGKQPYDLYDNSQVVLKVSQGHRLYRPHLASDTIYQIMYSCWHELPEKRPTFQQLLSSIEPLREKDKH
T10 sequence (Q05513 whole entry): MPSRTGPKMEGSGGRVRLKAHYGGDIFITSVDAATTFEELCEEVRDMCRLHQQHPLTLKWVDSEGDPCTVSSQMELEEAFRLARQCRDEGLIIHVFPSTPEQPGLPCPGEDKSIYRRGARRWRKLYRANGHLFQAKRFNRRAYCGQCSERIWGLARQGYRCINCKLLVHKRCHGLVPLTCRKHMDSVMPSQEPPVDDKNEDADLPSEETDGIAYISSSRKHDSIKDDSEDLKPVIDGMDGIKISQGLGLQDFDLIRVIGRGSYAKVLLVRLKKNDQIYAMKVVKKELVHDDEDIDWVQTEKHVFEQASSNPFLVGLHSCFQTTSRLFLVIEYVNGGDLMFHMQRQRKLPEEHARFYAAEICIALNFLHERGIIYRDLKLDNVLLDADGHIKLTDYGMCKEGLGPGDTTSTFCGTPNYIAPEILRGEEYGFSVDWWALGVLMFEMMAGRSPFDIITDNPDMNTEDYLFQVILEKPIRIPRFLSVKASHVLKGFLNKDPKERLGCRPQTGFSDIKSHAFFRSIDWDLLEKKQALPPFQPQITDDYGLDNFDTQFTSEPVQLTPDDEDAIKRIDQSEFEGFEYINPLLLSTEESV
T1 sequence (P10721 whole entry V560G): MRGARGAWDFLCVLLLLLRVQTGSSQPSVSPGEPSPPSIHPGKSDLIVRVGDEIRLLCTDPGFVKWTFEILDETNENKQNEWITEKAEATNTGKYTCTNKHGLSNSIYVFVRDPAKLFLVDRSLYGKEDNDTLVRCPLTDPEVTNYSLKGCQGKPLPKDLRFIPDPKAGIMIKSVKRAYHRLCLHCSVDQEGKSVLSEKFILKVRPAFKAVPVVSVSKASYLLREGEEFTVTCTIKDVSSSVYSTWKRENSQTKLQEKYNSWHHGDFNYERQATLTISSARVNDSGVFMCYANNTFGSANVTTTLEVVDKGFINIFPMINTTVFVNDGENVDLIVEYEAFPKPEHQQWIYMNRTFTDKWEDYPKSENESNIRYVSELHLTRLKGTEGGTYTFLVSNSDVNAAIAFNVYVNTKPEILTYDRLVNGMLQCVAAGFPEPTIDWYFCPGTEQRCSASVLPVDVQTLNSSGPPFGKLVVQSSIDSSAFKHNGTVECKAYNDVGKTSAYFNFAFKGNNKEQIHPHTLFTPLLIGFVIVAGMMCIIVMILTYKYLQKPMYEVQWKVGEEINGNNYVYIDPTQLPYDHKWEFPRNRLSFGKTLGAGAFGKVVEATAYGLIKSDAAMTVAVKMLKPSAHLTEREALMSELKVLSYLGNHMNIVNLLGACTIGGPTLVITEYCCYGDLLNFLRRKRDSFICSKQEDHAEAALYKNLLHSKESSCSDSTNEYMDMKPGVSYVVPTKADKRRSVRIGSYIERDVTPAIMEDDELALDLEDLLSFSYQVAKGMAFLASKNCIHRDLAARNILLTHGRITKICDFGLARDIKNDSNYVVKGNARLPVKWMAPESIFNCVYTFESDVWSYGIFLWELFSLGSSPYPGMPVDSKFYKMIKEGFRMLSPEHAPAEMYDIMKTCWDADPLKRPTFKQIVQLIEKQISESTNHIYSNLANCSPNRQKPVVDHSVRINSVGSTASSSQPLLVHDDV
Sequence of SPHK1 (Q9NYA1 whole entry): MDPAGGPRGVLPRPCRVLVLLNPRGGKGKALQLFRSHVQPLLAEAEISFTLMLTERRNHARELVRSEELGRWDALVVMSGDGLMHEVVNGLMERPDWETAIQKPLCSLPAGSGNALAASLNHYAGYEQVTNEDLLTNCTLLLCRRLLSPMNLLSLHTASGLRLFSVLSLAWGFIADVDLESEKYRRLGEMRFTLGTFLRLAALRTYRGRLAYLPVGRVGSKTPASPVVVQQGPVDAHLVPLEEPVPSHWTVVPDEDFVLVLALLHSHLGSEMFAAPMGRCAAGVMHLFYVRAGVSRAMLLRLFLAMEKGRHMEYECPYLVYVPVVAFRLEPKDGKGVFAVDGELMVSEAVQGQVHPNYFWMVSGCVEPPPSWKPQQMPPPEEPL
T8 sequence (Q16513 whole entry): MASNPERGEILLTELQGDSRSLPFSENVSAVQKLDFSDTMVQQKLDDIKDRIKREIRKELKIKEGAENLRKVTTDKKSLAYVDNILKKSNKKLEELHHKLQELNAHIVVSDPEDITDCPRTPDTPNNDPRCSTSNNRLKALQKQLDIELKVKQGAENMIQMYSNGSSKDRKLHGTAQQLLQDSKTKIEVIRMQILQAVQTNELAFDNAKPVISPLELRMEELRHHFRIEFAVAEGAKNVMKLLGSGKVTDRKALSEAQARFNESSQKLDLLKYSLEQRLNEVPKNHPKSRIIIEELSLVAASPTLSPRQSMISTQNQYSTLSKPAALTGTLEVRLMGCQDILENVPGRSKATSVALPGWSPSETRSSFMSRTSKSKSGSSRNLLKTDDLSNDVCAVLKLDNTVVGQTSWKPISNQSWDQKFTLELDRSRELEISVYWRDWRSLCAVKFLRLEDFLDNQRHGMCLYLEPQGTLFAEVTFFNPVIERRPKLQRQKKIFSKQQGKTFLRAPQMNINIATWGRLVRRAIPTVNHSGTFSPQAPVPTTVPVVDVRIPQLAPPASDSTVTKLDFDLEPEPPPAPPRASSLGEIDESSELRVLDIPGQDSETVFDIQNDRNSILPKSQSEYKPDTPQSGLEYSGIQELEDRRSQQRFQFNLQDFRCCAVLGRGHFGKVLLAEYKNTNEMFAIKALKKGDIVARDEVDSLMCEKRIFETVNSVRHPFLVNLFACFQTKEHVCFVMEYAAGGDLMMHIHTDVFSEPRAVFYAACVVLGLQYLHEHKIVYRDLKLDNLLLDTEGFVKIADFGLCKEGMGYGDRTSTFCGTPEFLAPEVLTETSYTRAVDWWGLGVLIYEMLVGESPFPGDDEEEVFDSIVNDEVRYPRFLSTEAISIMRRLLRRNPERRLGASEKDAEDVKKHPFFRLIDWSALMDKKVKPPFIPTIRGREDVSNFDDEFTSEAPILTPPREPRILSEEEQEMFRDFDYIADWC
T2 sequence (P49137 whole entry): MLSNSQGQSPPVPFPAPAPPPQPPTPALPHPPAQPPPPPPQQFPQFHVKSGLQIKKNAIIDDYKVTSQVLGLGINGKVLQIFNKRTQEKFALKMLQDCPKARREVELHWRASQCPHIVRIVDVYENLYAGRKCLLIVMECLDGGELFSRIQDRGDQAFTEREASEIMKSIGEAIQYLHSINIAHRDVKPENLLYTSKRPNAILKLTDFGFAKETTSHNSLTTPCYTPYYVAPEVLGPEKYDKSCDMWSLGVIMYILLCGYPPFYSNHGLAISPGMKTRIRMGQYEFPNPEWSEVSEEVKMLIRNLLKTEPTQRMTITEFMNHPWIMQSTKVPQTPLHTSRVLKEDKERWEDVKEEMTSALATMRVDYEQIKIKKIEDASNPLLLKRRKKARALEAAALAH
T4 sequence (P10721 whole entry D816H): as the sequence (P10721 whole entry V560G) above, with G560V, D816H counted along it
T5 sequence (P49841 whole entry): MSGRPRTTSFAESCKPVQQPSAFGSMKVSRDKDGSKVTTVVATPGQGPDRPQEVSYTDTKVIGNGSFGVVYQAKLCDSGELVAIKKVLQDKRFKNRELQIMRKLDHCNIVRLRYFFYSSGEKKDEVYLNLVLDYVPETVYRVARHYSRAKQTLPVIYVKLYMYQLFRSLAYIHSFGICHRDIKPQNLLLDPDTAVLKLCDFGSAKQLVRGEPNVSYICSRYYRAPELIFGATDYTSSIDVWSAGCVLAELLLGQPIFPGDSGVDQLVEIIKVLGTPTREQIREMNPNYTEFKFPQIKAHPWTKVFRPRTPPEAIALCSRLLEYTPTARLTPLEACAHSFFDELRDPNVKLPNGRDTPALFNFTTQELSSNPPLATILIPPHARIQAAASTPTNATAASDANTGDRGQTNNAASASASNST

What is called inhibition is the drop in the measured response relative to a control, in per cent. For `CC[C@@H](N)CNc1ccnc(-c2cc(-c3cnn(C)c3)ccc2O)n1` [CRT0066101], the inhibition at 1 µM on cKit(V560G)(h) was 24%; on MAPKAP-K2(h), -9%; against SPHK1, 19%; at Flt1(h), -6%; against TrkB(h), 15%; at cKit(D816H)(h), 51%. Also, the inhibition at 1 µM at Flt4(h) was 22%; on GSK3β(h), 18%; at CaMKI(h), 2%; against Ros(h), -13%; at PRK2(h), 77%; on Bmx(h), 26%. Also, the inhibition at 1 µM was 98% against Pim-1(h); -25% on Fer(h); -8% against PKCζ(h); 66% at Mer(h); 23% on TrkA(h).
